Assay results taken from patent US20230330178A1, “USE OF POLYPEPTIDE IN DRUG FOR PREVENTING AND TREATING PNEUMONIA” (priority 2020, published 2023).
Like-named read-outs stand apart in the source and are kept apart here.

How the values were obtained:
[1] = system: Staphylococcus aureus; assay: animal or person; assay type: in vivo; conditions: for Number of staphylococcus aureus: lung tissue of pneumonia model rats; for inhibition at 5000 µg/mL, 18 mg/kg / inhibition at 50 µg/mL: Staphylococcus aureus, in Rattus norvegicus, inhaled or nasal, vs model control group
Experimental: (§1) Animals in the blank administration group were not modeled, and inhaled a high-concentration polypeptide aerosol (0.48 mg/L) through nose and mouth every day. Animals in the blank control group were instilled with a 0.5 mL 0.9% sodium chloride injection through trachea. After the remaining groups were slightly anesthetized with ether, the model control group, the erythromycin group, the budesonide group, the low-dose polypeptide treatment group, and the high-dose polypeptide treatment group were instilled with a 1×10^8 CFU/mL mixed bacteria solution of Staphylococcus aureus, Streptococcus pneumoniae, and Escherichia coli through trachea, 0.5 mL/rat, respectively, and the blank control group was instilled with a 0.9% sodium chloride injection of a same volume.
(§2) A specific modeling method was as follows: a rat was anesthetized by ether inhalation and lied on an anatomical plate at an angle of 30-45°, trachea of the rat was exposed under an otoscope, a long puncture needle was connected to a 1 mL syringe and inserted into the trachea, each rat was injected with 0.5 mL of mixed bacteria, the puncture needle was pulled out after the injection, the rat was still kept at the original tilt position for about 10 min, and the bacteria solution flowed into bronchus and alveoli due to gravity to cause infection, so as to induce a rat pneumonia model.
(§3) Each group was administrated for the first time at 2 h after modeling. After the experiment begun, 7.16 mg/mL and 71.6 mg/mL peptide solutions were atomized into aerosol particles with target concentrations of 0.07 and 0.48 mg/L every day, and the animals in the low-dose peptide treatment group and the high-dose peptide treatment group (0.54 mg/kg and 3.7 mg/kg, corresponding to drug concentrations 0.07 and 0.48 mg/L respectively) inhaled the aerosol particles with corresponding concentrations through mouth and nose respectively for 7 consecutive days, 10 min/time, 3 times a day; the blank administration group (cumulative dose 22.2 mg/kg, corresponding to a drug concentration 0.48 mg/L) inhaled 0.48 mg/L peptide aerosol particles through mouth and nose every day for 7 consecutive days, 20 min/time, 3 times a day; the blank control group and the model control group inhaled a 0.9% sodium chloride solution for the same time according to the same method; the erythromycin group and the budesonide group were administrated with a 5 mg/mL erythromycin solution and a 0.05 mg/mL budesonide suspension respectively for the same time according to the same method; and body weight of each group was tested every day.
(§4) Except the blank administration group, half animals of the remaining groups were randomly selected for lung function test, gross anatomy examination, and pathological test on D4 day, and lungs of 3 animals in each group were selected for bacteria culture and counting; and on D8 day, the remaining animals were subjected to lung function test, gross anatomy examination, and pathological test, and lungs of 3 animals in each group were selected for bacteria culture and counting (the blank control group and the blank administration group were not examined).
(§5) Experimental steps of bacteria culture: except the blank administration group, six animals were randomly selected from each of the remaining groups (three animals were randomly selected from the first and last anatomies), left middle lobe lung tissues were taken, washed with 0.9% sodium chloride injection, added with double weight of 0.9% sodium chloride injection, and ground into homogenate, the homogenate was inoculated into a meat extract agar medium and cultured at 37° C. for 16 to 18 h, bacteria were isolated, and each isolated bacteria suspension was diluted to 10^−1, 10^−2, 10^−3, 10^−4, 10^−5, 10^−6, 10^−7 and 10^−8 according to 10 times gradient, namely, 9 mL normal saline plus 1 mL bacteria suspension was 10^−1, and so on. […]

[2] = system: Escherichia coli; assay: animal or person; assay type: in vivo; conditions: for Number of escherichia coli: lung tissue of pneumonia model rats; for inhibition at 5000 µg/mL, 18 mg/kg / inhibition at 50 µg/mL: Escherichia coli, in Rattus norvegicus, inhaled or nasal, vs model control group
Experimental: as §1, §2, §3, §4, §5

[3] = system: Streptococcus pneumoniae; assay: animal or person; assay type: in vivo; conditions: for Number of streptococcus pneumoniae: lung tissue of pneumonia model rats; for inhibition at 5000 µg/mL, 18 mg/kg / inhibition at 50 µg/mL: Streptococcus pneumoniae, in Rattus norvegicus, inhaled or nasal, vs model control group
Experimental: as §1, §2, §3, §4, §5

[4] = system: models of pneumonia in rats induced by mixed bacteria solution of Staphylococcus aureus, Streptococcus pneumoniae, and Escherichia coli; assay: Arterial blood gas in rat pneumonia model induced by mixed bacteria; assay type: in vivo, SD rats; conditions: for PaCO2: partial pressure of carbon dioxide / PaO2: partial pressure of oxygen / arterial blood pH: pneumonia model rats
Source text: (§6) Bacterial pneumonia is the most common pneumonia, is also one of the most common infectious diseases, and is caused by bacterial infection. Main pathogenic bacteria of the bacterial pneumonia include Streptococcus pneumoniae, Staphylococcus aureus, Escherichia coli, and the like, which pose a great threat to the health of children and the elderly. In this experiment, a mixed bacteria solution of Staphylococcus aureus, Streptococcus pneumoniae, and Escherichia coli was instilled into the trachea to induce models of pneumonia in rats. Pharmacodynamic effects of a peptide on pneumonia were evaluated by observing effects of the peptide inhaled through the nose and mouth on the models of pneumonia caused by mixed bacteria infection.
(§7) 80 SD rats, SPF grade, half male and half female, were selected and randomly divided into 8 groups according to sex and body weight, including 6 rats in each of a blank control group and a model evaluation group, 8 rats in a blank administration group, and 12 rats in each of a model control group, an erythromycin group, a budesonide group, a low-dose polypeptide treatment group, and a high-dose polypeptide treatment group.
as §1, §2
as §3, with “day. […]” for “day.”

[5] = system: models of pneumonia in rats induced by mixed bacteria solution of Staphylococcus aureus, Streptococcus pneumoniae, and Escherichia coli; assay: Lung function test in rat pneumonia model induced by mixed bacteria; assay type: in vivo, SD rats
Source text: as §6, §7, §1, §2, §3

[6] = system: models of pneumonia in rats induced by mixed bacteria solution of Staphylococcus aureus, Streptococcus pneumoniae, and Escherichia coli; assay: Pathological test of lung tissue (HE) in rat pneumonia model; assay type: in vivo, SD rats; conditions: erythromycin 5 mg/mL solution (18 mg/kg) inhaled
Source text: as §6, §7
Animals in the blank administration group were not modeled, and inhaled a high-concentration polypeptide aerosol (0.48 mg/L) through nose and mouth every day. […]

[7] = D4, erythromycin 5 mg/mL solution (18 mg/kg) inhaled
[8] = D8, erythromycin 5 mg/mL solution (18 mg/kg) inhaled
[9] = D4, budesonide 0.05 mg/mL suspension (0.18 mg/kg) inhaled
[10] = D8, budesonide 0.05 mg/mL suspension (0.18 mg/kg) inhaled

SMILES: CC[C@H]1OC(=O)[C@H](C)[C@@H](O[C@H]2C[C@@](C)(OC)[C@@H](O)[C@H](C)O2)[C@H](C)[C@@H](O[C@@H]2O[C@H](C)C[C@H](N(C)C)[C@H]2O)[C@](C)(O)C[C@@H](C)C(=O)[C@H](C)[C@@H](O)[C@]1(C)O [Erythromycin, erythromycin]
- Number of staphylococcus aureus [1, 7]: 633 ± 146 CFU/mL
- Number of staphylococcus aureus [1, 8]: 113 ± 31 CFU/mL
- inhibition at 5000 µg/mL, 18 mg/kg ([1]; read-out: Inhibition rate of staphylococcus aureus, D4, erythromycin 5 mg/mL solution (18 mg/kg) inhaled): 87.4%
- inhibition at 5000 µg/mL, 18 mg/kg ([1]; read-out: Inhibition rate of staphylococcus aureus, D8, erythromycin 5 mg/mL solution (18 mg/kg) inhaled): 96.7%
- Number of escherichia coli [2, 7]: 447 ± 146 CFU/mL
- Number of escherichia coli [2, 8]: 80 ± 2 CFU/mL
- inhibition at 5000 µg/mL, 18 mg/kg ([2]; read-out: Inhibition rate of escherichia coli, D4, erythromycin 5 mg/mL solution (18 mg/kg) inhaled): 85.6%
- inhibition at 5000 µg/mL, 18 mg/kg ([2]; read-out: Inhibition rate of escherichia coli, D8, erythromycin 5 mg/mL solution (18 mg/kg) inhaled): 91.7%
- Number of streptococcus pneumoniae [3, 7]: 1223 ± 287 CFU/mL
- Number of streptococcus pneumoniae [3, 8]: 67 ± 15 CFU/mL
- inhibition at 5000 µg/mL, 18 mg/kg ([3]; read-out: Inhibition rate of streptococcus pneumoniae, D4, erythromycin 5 mg/mL solution (18 mg/kg) inhaled): 74.1%
- inhibition at 5000 µg/mL, 18 mg/kg ([3]; read-out: Inhibition rate of streptococcus pneumoniae, D8, erythromycin 5 mg/mL solution (18 mg/kg) inhaled): 95.8%
- PaCO2: partial pressure of carbon dioxide [4, 7]: 50.38 ± 6.60 mmHg
- PaO2: partial pressure of oxygen [4, 7]: 69.68 ± 15.16 mmHg
- arterial blood pH [4, 7]: 7.33 ± 0.05
- PaO2 increase vs model control group ([4]; D8, erythromycin group (18 mg/kg), no statistical difference): 37.17%
- PaCO2: partial pressure of carbon dioxide [4, 8]: 39.37 ± 5.60 mmHg
- PaO2: partial pressure of oxygen [4, 8]: 71.08 ± 14.74 mmHg
- arterial blood pH [4, 8]: 7.42 ± 0.04
- FEV200 (forced expiratory volume) [5, 7]: 2.84 ± 0.54 mL
- FEV200/FVC [5, 7]: 90.65 ± 4.78 %
- FVC: forced vital capacity [5, 7]: 3.12 ± 0.52 mL
- VT: tidal volume [5, 7]: 1.59 ± 0.39 mL
- f: respiratory rate [5, 7]: 132 ± 27 time/min
- FEV200 (forced expiratory volume) [5, 8]: 3.40 ± 0.12 mL
- FEV200/FVC [5, 8]: 92.36 ± 2.94 %
- FVC: forced vital capacity [5, 8]: 3.68 ± 0.20 mL
- VT: tidal volume [5, 8]: 1.67 ± 0.24 mL
- f: respiratory rate [5, 8]: 130 ± 25 time/min
- pathological changes of lungs compared with the model control group ([6]; D4): significantly alleviated
- lung tissue lesions ([6]; D8): tended to normal

SMILES: CCCC1O[C@@H]2C[C@H]3[C@@H]4CCC5=CC(=O)C=C[C@]5(C)[C@H]4[C@@H](O)C[C@]3(C)[C@]2(C(=O)CO)O1 (some centres unmarked) [Budesonide, budesonide]
- Number of staphylococcus aureus [1, 9]: 2577 ± 655 CFU/mL
- Number of staphylococcus aureus [1, 10]: 560 ± 269 CFU/mL
- inhibition at 50 µg/mL ([1]; read-out: Inhibition rate of staphylococcus aureus, D4, budesonide 0.05 mg/mL suspension (0.18 mg/kg) inhaled): 48.7%
- inhibition at 50 µg/mL ([1]; read-out: Inhibition rate of staphylococcus aureus, D8, budesonide 0.05 mg/mL suspension (0.18 mg/kg) inhaled): 83.4%
- Number of escherichia coli [2, 9]: 3737 ± 1115 CFU/mL
- Number of escherichia coli [2, 10]: 890 ± 409 CFU/mL
- inhibition at 50 µg/mL ([2]; read-out: Inhibition rate of escherichia coli, D4, budesonide 0.05 mg/mL suspension (0.18 mg/kg) inhaled): -20.6%
- inhibition at 50 µg/mL ([2]; read-out: Inhibition rate of escherichia coli, D8, budesonide 0.05 mg/mL suspension (0.18 mg/kg) inhaled): 7.58%
- Number of streptococcus pneumoniae [3, 9]: 1810 ± 957 CFU/mL
- Number of streptococcus pneumoniae [3, 10]: 433 ± 276 CFU/mL
- inhibition at 50 µg/mL ([3]; read-out: Inhibition rate of streptococcus pneumoniae, D4, budesonide 0.05 mg/mL suspension (0.18 mg/kg) inhaled): 61.7%
- inhibition at 50 µg/mL ([3]; read-out: Inhibition rate of streptococcus pneumoniae, D8, budesonide 0.05 mg/mL suspension (0.18 mg/kg) inhaled): 72.7%
- PaCO2: partial pressure of carbon dioxide [4, 9]: 52.87 ± 13.34 mmHg
- PaO2: partial pressure of oxygen [4, 9]: 75.73 ± 30.92 mmHg
- arterial blood pH [4, 9]: 7.31 ± 0.07
- PaCO2: partial pressure of carbon dioxide [4, 10]: 34.35 ± 8.17 mmHg
- PaO2: partial pressure of oxygen [4, 10]: 86.67 ± 24.78 mmHg
- arterial blood pH [4, 10]: 7.45 ± 0.06
- FEV200 (forced expiratory volume) [5, 9]: 2.72 ± 0.72 mL
- FEV200/FVC [5, 9]: 85.78 ± 8.00%
- FVC: forced vital capacity [5, 9]: 3.13 ± 0.59 mL
- VT: tidal volume [5, 9]: 1.86 ± 0.69 mL
- f: respiratory rate [5, 9]: 130 ± 39 time/min
- FEV200 (forced expiratory volume) [5, 10]: 3.43 ± 0.69 mL
- FEV200/FVC [5, 10]: 89.77 ± 4.58%
- FVC: forced vital capacity [5, 10]: 3.80 ± 0.65 mL
- VT: tidal volume [5, 10]: 1.63 ± 0.27 mL
- f: respiratory rate [5, 10]: 126 ± 11 time/min
